Assay [1] deals with Glyceraldehyde-3-phosphate dehydrogenase (Homo sapiens, UniProt P04406).
The target of assay [2] is T1, Alkaline phosphatase, tissue-nonspecific isozyme (Homo sapiens, UniProt P05186).
T1 sequence (P05186 whole entry): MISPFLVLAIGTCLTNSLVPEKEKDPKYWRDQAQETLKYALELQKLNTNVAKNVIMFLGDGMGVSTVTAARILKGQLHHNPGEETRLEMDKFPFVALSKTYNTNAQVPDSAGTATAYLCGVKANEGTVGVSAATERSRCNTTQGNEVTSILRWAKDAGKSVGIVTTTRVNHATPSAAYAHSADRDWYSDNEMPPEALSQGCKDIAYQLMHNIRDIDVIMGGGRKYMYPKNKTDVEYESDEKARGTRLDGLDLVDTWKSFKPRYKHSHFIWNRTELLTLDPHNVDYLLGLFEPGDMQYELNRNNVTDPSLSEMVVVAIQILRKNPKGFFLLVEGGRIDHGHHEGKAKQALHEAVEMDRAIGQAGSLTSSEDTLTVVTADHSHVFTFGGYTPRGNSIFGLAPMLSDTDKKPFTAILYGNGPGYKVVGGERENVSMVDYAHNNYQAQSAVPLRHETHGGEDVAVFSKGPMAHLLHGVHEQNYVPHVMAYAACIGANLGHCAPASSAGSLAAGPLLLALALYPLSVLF
Kind of assay: human TNAP enzyme inhibitors, SAR follow-up, biochemical, luminescent, dose response (AID 1056).

The next assay has as its target T2, Aminopeptidase N (Plasmodium falciparum FcB1/Columbia, UniProt O96935).
T2 sequence (O96935 whole entry): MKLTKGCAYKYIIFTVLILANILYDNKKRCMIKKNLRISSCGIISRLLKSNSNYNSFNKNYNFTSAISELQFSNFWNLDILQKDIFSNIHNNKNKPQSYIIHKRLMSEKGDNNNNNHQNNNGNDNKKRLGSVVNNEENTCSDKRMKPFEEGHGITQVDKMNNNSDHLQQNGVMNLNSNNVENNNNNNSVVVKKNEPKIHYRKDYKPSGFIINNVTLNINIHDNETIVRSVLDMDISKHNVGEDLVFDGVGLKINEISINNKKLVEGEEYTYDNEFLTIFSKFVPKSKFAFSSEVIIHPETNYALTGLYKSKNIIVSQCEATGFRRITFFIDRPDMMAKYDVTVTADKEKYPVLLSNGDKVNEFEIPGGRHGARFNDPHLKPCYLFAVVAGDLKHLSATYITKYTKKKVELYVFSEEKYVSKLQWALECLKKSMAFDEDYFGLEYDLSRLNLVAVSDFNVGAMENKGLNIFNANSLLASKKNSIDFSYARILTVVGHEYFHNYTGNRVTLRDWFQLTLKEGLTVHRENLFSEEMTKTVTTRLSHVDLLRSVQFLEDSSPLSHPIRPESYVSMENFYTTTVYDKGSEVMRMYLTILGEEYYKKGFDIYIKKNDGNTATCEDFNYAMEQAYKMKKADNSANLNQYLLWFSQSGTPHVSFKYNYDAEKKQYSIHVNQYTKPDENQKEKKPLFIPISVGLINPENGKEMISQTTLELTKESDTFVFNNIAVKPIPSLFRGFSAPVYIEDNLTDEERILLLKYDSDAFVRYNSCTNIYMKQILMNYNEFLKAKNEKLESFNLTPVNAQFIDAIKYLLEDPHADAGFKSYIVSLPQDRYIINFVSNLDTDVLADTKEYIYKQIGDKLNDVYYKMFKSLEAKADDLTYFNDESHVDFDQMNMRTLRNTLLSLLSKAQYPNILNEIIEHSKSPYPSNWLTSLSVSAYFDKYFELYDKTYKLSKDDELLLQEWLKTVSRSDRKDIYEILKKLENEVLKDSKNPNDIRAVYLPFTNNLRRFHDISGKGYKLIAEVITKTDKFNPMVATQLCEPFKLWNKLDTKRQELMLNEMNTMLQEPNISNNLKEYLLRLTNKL
Kind of assay: P. falciparum M1AAP inhibitors, biochemical, fluorogenic H-Leu-NHMec substrate, 1536-well (AID 1445). More on the design: species or system Plasmodium falciparum 3D7, 3D7.

A further assay deals with Cytochrome P450 3A4 (Homo sapiens, UniProt P08684). Particulars: Potency.
The target in another assay is T3, Protein RecA (Mycobacterium tuberculosis, UniProt P9WHJ3).
T3 sequence (P9WHJ3 whole entry): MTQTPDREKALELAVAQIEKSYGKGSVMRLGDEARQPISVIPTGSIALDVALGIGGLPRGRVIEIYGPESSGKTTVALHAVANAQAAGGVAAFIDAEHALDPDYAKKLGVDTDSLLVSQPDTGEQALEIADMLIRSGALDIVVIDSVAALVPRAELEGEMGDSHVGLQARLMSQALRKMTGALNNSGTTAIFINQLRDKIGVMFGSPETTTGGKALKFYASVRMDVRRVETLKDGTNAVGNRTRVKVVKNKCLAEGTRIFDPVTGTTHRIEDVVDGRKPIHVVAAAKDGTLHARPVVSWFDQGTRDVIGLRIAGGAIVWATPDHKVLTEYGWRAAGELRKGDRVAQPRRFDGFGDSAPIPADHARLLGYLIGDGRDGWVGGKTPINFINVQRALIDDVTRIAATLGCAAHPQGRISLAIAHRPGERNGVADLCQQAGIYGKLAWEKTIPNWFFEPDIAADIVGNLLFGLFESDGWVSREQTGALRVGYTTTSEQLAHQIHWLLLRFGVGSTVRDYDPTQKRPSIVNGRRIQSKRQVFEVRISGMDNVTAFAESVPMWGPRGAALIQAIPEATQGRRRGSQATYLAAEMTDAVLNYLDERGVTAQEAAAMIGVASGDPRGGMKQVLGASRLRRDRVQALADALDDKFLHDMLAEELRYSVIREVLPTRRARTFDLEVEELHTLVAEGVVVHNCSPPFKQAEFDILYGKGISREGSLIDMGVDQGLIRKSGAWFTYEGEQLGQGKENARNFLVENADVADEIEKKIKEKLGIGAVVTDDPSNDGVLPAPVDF
Kind of assay: Fluorescence Cell-Free Homogeneous Dose Retest to Identify Inhibitors of RecA-Intein Splicing Activity. [Related pubchem assays (depositor defined):AID2097, AID2223, AID489010, AID492950]. It counts as functional.

Assay [3] can be described thus: Luminescent dose response cell-based high throughput screening assay for inhibitors of the Janus kinase 2 mutant JAK2V617F. [Related pubchem assays: 1446 (Primary screen.), 1521 (Confirmation assay.), 1486 (Counter screen.)]. It counts as functional.
Assay [4] has as its target T4, Heat shock factor protein 1 (Mus musculus, UniProt P38532).
T4 sequence (P38532 whole entry): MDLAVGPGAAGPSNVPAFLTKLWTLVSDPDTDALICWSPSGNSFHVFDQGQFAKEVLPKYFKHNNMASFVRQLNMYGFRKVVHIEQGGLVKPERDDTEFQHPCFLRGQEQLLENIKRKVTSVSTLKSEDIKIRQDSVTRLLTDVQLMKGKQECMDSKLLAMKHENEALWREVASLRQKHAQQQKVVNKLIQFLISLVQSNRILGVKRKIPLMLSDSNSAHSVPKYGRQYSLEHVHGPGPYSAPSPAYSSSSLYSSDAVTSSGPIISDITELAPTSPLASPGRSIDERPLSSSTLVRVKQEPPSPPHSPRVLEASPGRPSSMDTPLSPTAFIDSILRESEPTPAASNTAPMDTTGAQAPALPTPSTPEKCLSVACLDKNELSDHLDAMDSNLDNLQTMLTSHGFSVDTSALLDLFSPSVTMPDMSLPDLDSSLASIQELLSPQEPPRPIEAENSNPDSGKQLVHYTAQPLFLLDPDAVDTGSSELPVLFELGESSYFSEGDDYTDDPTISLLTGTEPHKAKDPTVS
Kind of assay: inhibition of MG132-induced HSE-luciferase signal, confirmation, cell-based, NIH3T3, luminescence, dose retest (AID 2382).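 Also: NIH3T3 fibroblasts with HSF1-driven luciferase reporter stressed by proteasome inhibitor MG132; luminescence from HSF1-driven luciferase expression after 8 hours of MG132 stress.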 It counts as functional.

For a further assay, the system named is H4. Kind of assay: Luminescence Cell-Based Dose Response HTS to Identify Activators of 5'UTR Stem-Loop Driven Prion Protein mRNA Translation in H4 Neuroglioblastoma Cells. [Related pubchem assays: 1829 (Project Summary), 1814 (Primary HTS)]. Type of assay: functional. Particulars: Homo sapiens.
Assay [5] in a line: Luminescence Cell-Based Dose Confirmation HTS to Identify Activators of 5'UTR Stem-Loop Driven Alpha-Synuclein mRNA Translation in H4 Neuroglioblastoma Cells. [Related pubchem assays: 1829 (Project Summary), 1814 (Primary HTS)]. It counts as functional.
Assay [6] in a line: Luminescence Cell-Based Dose Response HTS to Identify Activators of Luciferase Translation or Activity in H4 […] Cells. [Related pubchem assays: 1829 (Project Summary), 1814 (Primary HTS)]. It counts as functional.
Assay [7] in a line: Luminescence Cell-Based Dose Retest to Confirm Inhibitors of Cancer Stem Cells. [Related pubchem assays (depositor defined):AID2717, AID2721]. It counts as functional. Particulars: Homo sapiens.
For assay [8], the target named is T5, Microphthalmia-associated transcription factor (Homo sapiens, UniProt O75030).
T5 sequence (O75030 whole entry): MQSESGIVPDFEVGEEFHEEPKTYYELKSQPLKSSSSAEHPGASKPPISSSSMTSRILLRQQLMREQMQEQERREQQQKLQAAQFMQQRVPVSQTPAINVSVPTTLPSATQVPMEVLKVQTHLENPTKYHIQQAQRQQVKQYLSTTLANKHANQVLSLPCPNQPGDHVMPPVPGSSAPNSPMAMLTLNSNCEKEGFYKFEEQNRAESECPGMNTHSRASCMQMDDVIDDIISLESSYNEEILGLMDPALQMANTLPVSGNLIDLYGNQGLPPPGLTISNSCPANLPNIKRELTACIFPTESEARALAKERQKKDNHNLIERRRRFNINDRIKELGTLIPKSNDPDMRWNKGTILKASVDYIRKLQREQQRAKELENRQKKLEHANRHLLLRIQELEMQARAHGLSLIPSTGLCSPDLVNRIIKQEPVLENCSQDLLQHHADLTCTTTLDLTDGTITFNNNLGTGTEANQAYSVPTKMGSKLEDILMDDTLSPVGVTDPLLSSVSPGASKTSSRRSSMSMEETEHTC
Kind of assay: TRPM1 promoter luciferase signal decrease, dose response, MITF inhibitor project, cell-based, SK-MEL-5, cherry-picked, set 3 (AID 493073).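 Also: SK-MEL-5 melanoma cells with luciferase driven by the MITF target TRPM1 promoter.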 Type of assay: functional.

Assay [9] has as its target G-protein coupled receptor 55 (Homo sapiens, UniProt Q9Y2T6). Kind of assay: GPR55 antagonists blocking LPI-driven arrestin recruitment, primary screen, imaging, U2OS, beta-arrestin-GFP, LPI agonist (AID 2013).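 Also: antagonist potency measured as reduced agonist-driven arrestin aggregation.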 Type of assay: functional. On the technique in general: Arrestin recruitment assays detect the binding of arrestin to an activated receptor.

As usually defined, the IC50 is the point on the concentration scale where inhibition reaches its midpoint. One may read the AC50 as the midpoint of the concentration-response curve, whichever way the signal moves. As usually defined, the EC50 is the concentration that produces a half-maximal response.

Values joined by “and” are separate entries in the source; they are usually repeats but may differ in a detail not shown here. Identical values can stand only once. Active and inactive are the calls of the source. Bounds are passed on as bounds.

Chain of G-protein coupled receptor 55 (Q9Y2T6 whole entry): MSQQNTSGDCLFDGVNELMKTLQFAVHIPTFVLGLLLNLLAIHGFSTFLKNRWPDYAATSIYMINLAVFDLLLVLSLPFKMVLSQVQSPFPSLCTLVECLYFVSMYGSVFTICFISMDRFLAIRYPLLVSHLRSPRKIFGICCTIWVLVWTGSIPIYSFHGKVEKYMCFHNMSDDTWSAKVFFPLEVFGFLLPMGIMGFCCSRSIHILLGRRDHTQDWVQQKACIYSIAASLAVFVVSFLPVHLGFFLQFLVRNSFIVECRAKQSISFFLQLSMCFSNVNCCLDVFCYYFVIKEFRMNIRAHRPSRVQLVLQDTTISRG
Chain of Cytochrome P450 3A4 (P08684 whole entry): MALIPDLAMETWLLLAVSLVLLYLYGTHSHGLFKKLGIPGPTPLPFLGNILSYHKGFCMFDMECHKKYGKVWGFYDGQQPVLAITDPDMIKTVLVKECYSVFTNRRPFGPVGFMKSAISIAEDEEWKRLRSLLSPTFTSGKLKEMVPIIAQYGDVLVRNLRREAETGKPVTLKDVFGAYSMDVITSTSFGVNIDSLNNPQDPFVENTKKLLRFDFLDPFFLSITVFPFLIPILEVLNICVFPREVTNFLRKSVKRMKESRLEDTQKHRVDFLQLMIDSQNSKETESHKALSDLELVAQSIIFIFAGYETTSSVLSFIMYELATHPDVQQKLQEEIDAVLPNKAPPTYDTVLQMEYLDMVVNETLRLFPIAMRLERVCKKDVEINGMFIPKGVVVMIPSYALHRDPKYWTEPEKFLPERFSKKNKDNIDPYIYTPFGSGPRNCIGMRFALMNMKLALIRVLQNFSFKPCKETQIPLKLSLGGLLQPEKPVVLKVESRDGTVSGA
Chain of Glyceraldehyde-3-phosphate dehydrogenase (P04406 whole entry): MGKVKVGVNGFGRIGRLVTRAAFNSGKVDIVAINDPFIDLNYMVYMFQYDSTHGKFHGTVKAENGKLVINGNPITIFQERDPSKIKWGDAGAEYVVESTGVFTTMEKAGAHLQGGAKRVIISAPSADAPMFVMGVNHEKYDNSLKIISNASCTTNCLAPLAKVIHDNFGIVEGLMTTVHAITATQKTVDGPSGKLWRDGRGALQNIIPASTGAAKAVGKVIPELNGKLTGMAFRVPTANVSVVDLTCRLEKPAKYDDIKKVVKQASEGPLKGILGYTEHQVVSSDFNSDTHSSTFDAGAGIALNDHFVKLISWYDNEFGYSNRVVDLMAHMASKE

In the case of `NCc1cc(-c2cccnc2)n[nH]1`, the values for the 50% inhibitory concentration (IC50) in [1] and in [2] were > 100 µM (not active) and > 100 µM (inactive), respectively.

Regarding `CCOC(=O)C1=C(Nc2ccc(OC)cc2)S/C(=C\c2ccc(OCC(=O)O)c(OC)c2)C1=O`, the IC50 at Aminopeptidase N was 87.3 µM (active). Take `O=S(=O)(Nc1ccc2ccccc2c1)c1cc(Cl)ccc1Cl`: the IC50 was > 100 µM (not active) in assay [1]; > 100 µM (inactive) and > 10 µM (inactive) in [2]. Consider `CCCN1[C@H](C(=O)OC)C[C@@H]2CC[C@@H](O)C[C@@H]21`, for which the half-maximal activity concentration (AC50) on Cytochrome P450 3A4 is 15.8 µM (inconclusive). Still for that read-out and setting: to `COC(=O)c1ccc(C23CC4(C2)[C@H](CN(C)[C@@H]4c2ccccc2)C3c2ccc(C(F)(F)F)cc2)cc1` (stereo partly specified) belongs 15.8 µM (inconclusive). Turning to `O=C(CCl)N(C/C=C/c1ccccc1)c1ccc2c(c1)OCCO2`, the concentration giving a half-maximal response (EC50) at Protein RecA is 0.356 µM (active); in assay [4], 1.67 µM (active). The IC50 in [3] was 0.605 µM (active). As for `COC(=O)[C@@H]1C[C@@H]2CC[C@@H](O)C[C@@H]2N1Cc1ccc(N2CCOCC2)cc1`, the AC50 on Cytochrome P450 3A4 is 3.98 µM (inconclusive). `C=C(C)C(O)/C=C/c1ccccc1OC` (stereo unspecified): on Cytochrome P450 3A4, the AC50 is 2.51 µM (inconclusive). As for `NS(=O)(=O)c1ccc(CCNC(=O)COC(=O)CCSc2ccc(Cl)cc2)cc1`, the IC50 at Aminopeptidase N is 46.8 µM (active).

For the molecule `COc1ccc(OC)c(NS(=O)(=O)c2ccc(SC)cc2)c1`, the EC50 with H4 is 44.8 µM (active); in assay [5], > 120 µM (not active); in [6] it was 6.98 µM (active). In addition, the IC50 in [3] was 3.35 µM (active).

Regarding `CCCCc1cc(=O)oc2cc(C)cc(OCc3nn[nH]n3)c12`, the half-inhibitory concentration (IC50) at Aminopeptidase N was 63.6 µM (active). With `CC(C)CN=C(NS(=O)(=O)c1ccccc1)C(Cl)(Cl)Cl`, the AC50 in [7] was 2.15 µM (active); in assay [8], 11.1 µM (active). The EC50 in [4] was 7.41 µM (active). Further, in assay [9], the 50% inhibitory concentration (IC50) was 2.02 µM (active).

Take `CNNC`: the AC50 on Cytochrome P450 3A4 was 31.6 µM (inconclusive).

With `CN(CC(O)CON=C1c2ccccc2-c2ccccc21)S(=O)(=O)c1ccc(Br)cc1` (stereo unspecified), the AC50 in [7] is 4.11 µM (active). For the same molecule, the IC50 in assay [9] is 2.14 µM (active).

In the case of `O=C(Nc1ccccc1N1CCCCC1)c1ccc(N2C(=O)c3ccccc3C2=O)cc1`, the IC50 in assay [9] was 1.99 µM (active).

The record behind these values is ChEMBL document CHEMBL1201862, “PubChem BioAssay data set” (2004).
